Details: a range is the spread between reports

melting point	Compound
-68.9 to -68 °C	Cc1ccc(C(C)C)cc1
205 to 206 °C	Cc1c(C(=O)O)cc([N+](=O)[O-])cc1[N+](=O)[O-]
42 to 42.8 °C	COc1cccc(O)c1O
79 to 81 °C	CC(C)(C(=O)O)c1ccccc1
168 to 169 °C	Cc1cc(C)c(CC(=O)O)c(C)c1
58 to 60 °C	CCOc1ccc([N+](=O)[O-])cc1
175 to 176 °C	O=[N+]([O-])c1ccc(O)c(O)c1
10 to 13.5 °C	COc1ccc(Br)cc1
30 to 33 °C	Oc1cccc(Br)c1
66 to 66.5 °C	CCOc1ccc(O)cc1
118 to 120 °C	COC(=O)c1ccc(O)cc1O
3.5 to 4 °C	O=[N+]([O-])c1c(F)cc(F)cc1F
35 to 37.5 °C	Nc1ccc2c(c1)CCC2
54 to 54.5 °C	Cc1cc(C)c(C)c(C)c1C
46 to 50 °C	COC(=O)c1cc(Cl)ccc1O
92 to 94 °C	CC(=O)Nc1ccccc1[N+](=O)[O-]
44 to 45 °C	CCOC(=O)c1ccc(C(=O)OCC)cc1
42 to 43 °C	COC(=O)c1cc(OC)cc(OC)c1
4 to 6 °C	Cc1cccc(Cl)c1Cl
145 to 146 °C	Cc1cccc(C(=O)O)c1C
-12 to -11.7 °C	O=[N+]([O-])c1cc(F)ccc1F
205 to 207 °C	CC(=O)Nc1ccc(C#N)cc1
182 to 183 °C	CC(=O)NS(=O)(=O)c1ccc(N)cc1
33.2 to 37 °C	COC(=O)c1ccc(C)cc1

The remaining lines, values behind:

Compound	melting point
SCc1ccccc1	-30 to -29 °C
COc1c(Cl)cc(Cl)cc1Cl	61 to 61.5 °C
CCCCCCCCCCCCCCCCCCCCCCCCCCCCCCCCCCCC	76 to 76.5 °C
CCC(CC)C(C)C	-115 °C
Cn1c(=O)c2c(ncn2C)n(C)c1=O	235 to 238 °C
O=C(O)CCc1ccc(O)cc1	129 to 131 °C
CCc1nc(N)nc(N)c1-c1ccc(Cl)cc1	233 to 234 °C
Nc1ccc2[nH]ncc2c1	175 to 176 °C
C#Cc1ccccc1	-45 to -44.8 °C
CCOP(=S)(OCC)Oc1nc(Cl)c(Cl)cc1Cl	41.5 to 42.5 °C
O=[N+]([O-])c1ccc(Oc2ccc(C(F)(F)F)cc2[N+](=O)[O-])cc1	90 to 94 °C
Clc1ccc(Br)cc1Cl	24 to 25 °C
c1ccc2c(c1)OCCOCCOCCOCCO2	79 to 80 °C
CCOC(=O)CC	-73.9 to -73 °C
CCOc1ccc(C(C)(C)COCc2cccc(Oc3ccccc3)c2)cc1	36 to 37 °C
C1=CC=CCC=C1	-80 to -79.5 °C
NC(N)=NC(=O)c1nc(Cl)c(N)nc1N	240 to 241 °C
O=Cc1ccnc2ccccc12	50 to 51 °C
C#CCCC(=O)O	56 to 57.7 °C
C=C=C(C)C	-114 °C
O=C(O)c1ccccc1-c1ccccc1	112 to 115 °C

Compound	melting point
Clc1nc(Cl)c(Cl)c(Cl)c1Cl	125 to 126 °C
Fc1c(F)c(F)c(C(F)(F)F)c(F)c1F	-66 to -65.6 °C
CCCCCCCCO	-16 to -15 °C
OCCCCCCCCCO	45.8 to 47 °C
CCCCCCCCCCCCCCCCCC	28 to 28.2 °C
CC(=O)OCCCCOC(C)=O	12 to 13 °C
O=S(=O)(c1ccccc1)c1ccccc1	128 °C
Cl[SiH](Cl)Cl	-127 to -126 °C
O=[N+]([O-])c1c(Cl)c(Cl)c(Cl)c(Cl)c1Cl	142 to 144 °C
C=CC	-185 °C
O=CO	8 to 8.32 °C
CC#N	-48 to -43.8 °C
Brc1cc(Br)c(Br)s1	27 to 29 °C
C1CCOCC1	-49 to -45 °C
O=C/C=C/c1ccccc1	-8 to -7 °C
CC(=O)CCC(=O)O	29 to 33 °C
CCOC(=O)/C=C/C(=O)OCC	0 to 2 °C
c1ccc2c(c1)c1ccccc1c1ccccc21	196 to 199 °C
CC1CC=CC1	-161 °C
C1=CCCCCCC1	-16 to -12 °C
c1cc(-c2ccncc2)ccn1	111 to 113 °C

From a melting point compilation (Tetko et al.)
